Assay: in vitro
Type: cell-based
Conditions: human, HOS cells, 48 h; read-out: CC50, cytotoxic concentration resulting in 50% reduction in the level of ATP
Experimental: Human embryonic kidney cell culture cell line 293 was acquired from the American Type Culture Collection (ATCC). The human osteosarcoma cell line, HOS, was obtained from Dr. Richard Schwartz (Michigan State University, East Lansing, MI, USA) and grown in Dulbecco’s modified Eagle’s medium (Invitrogen, Carlsbad, CA, USA) supplemented with 5% (v/v) fetal bovine serum, 5% newborn calf serum, and penicillin (50 units/mL) plus streptomycin (50 µg/mL; Quality Biological, Gaithersburg, MD, USA). The transfection vector, pNLNgoMIVR-ΔLUC was made from pNLNgoMIVR-ΔEnv.HSA by removing the HSA reporter gene and replacing it with a luciferase reporter gene between the NotI and XhoI restriction sites. To produce the new IN mutant S230N used in this study, the IN open reading frame was removed from pNLNgoMIVR-ΔENV.LUC by digestion with KpnI and SalI, and the resulting fragment was inserted between the KpnI and SalI sites of pBluescript KS+. Using that construct as the wild-type template, we prepared the following HIV-1 IN mutant S230N using the QuikChange II XL site-directed mutagenesis kit (Agilent Technologies, Santa Clara, CA, USA) protocol. The following sense oligonucleotides were used with matching cognate antisense oligonucleotides (not shown) (Integrated DNA Technologies, Coralville, IA, USA) in the mutagenesis: S230N 5′-[…]-3′. The DNA sequence of the IN mutant S230N construct was verified independently by DNA sequence determination. The mutated IN coding sequences from pBluescript KS+ were then subcloned into pNLNgoMIVR-ΔEnv.LUC (between the KpnI and SalI sites) to produce mutant HIV-1 constructs, which were also checked by DNA sequencing. […]. On the day prior to transfection, 293 cells were plated on 100 mm diameter dishes at a density of 1.5 × 10^6 cells per plate. Next, 293 cells were transfected with 16 µg of pNLNgoMIVR^-ΔLUC and 4 µg of pHCMV-g (obtained from Dr. Jane Burns, University of California, San Diego) using the calcium phosphate method. At approximately 6 h after the calcium phosphate precipitate was added, 293 cells were washed twice with phosphate-buffered saline (PBS) and incubated with fresh media for 48 h. The virus-containing supernatants were then harvested, clarified by low-speed centrifugation, filtrated, and diluted for preparation in antiviral infection assays. On the day prior to the screen, HOS cells were seeded in a 96-well luminescence cell culture plate at a density of 4000 cells in 100 µL per well. On the day of the screen for cellular cytotoxicity determination, cells were treated with compounds from a concentration range of 250 µM to 0.05 µM and then incubated at 37 °C for 48 h. On the day of the screen for antiviral activity infection assays, cells were treated with compounds from a concentration range of 5 µM to 0.0001 µM using 11 serial dilutions and then incubated at 37 °C for 3 h. After compound incorporation and activation in the cell, 100 µL of virus-stock (WT or mutant) diluted to achieve a luciferase signal between 0.2 and 1.5 Relative Luciferase Units (RLUs) was added to each well and further incubated at 37 °C for 48 h. Cellular cytotoxicity was measured by using the ATP Lite Luminescence detection system and monitored by adding 50 µL of cell lysis buffer from the Luminescence ATP detection assay to each well followed by mixing at 700 rpm at room temperature for 5 min using a compact thermomixer. After addition of 50 µL of reconstituted Luminescence ATP detection assay reagent to all wells except for the negative control/background wells, the plates were mixed at 700 rpm at room temperature for 5 min using a compact thermomixer, incubated at room temperature for 20 min to allow time for signal development, and finally, cytotoxicity was determined using the microplate reader. Infectivity was measured by using the Steady-lite plus luminescence reporter gene assay system (PerkinElmer, Waltham, MA, USA). […]
With O=C(NCc1ccc(F)cc1F)c1cn2ccn(CCCCO)c(=O)c2c(O)c1=O [Compound 6e, N-(2,4-Difluorobenzyl)-9-hydroxy-2-(4-hydroxybutyl)-1,8-dioxo-1,8-dihydro-2H-pyrido [1,2-a]pyrazine-7-carboxamide] the CC50 was > 250 µM.
With O=C(NCc1ccc(F)cc1F)c1cn2c(c(O)c1=O)C(=O)N(CCCCCCO)CC2 [Compound 7c, N-(2,4-Difluorobenzyl)-9-hydroxy-2-(6-hydroxyhexyl)-1,8-dioxo-1,3,4,8-tetrahydro-2H-pyrido [1,2-a]pyrazine-7-carboxamide] the CC50 was > 250 µM.
For O=C(NCc1ccc(F)cc1F)c1cn2c(c(O)c1=O)C(=O)N(CCCCO)CC2 [Compound 7e, N-(2,4-Difluorobenzyl)-9-hydroxy-2-(4-hydroxybutyl)-1,8-dioxo-1,3,4,8-tetrahydro-2H-pyrido [1,2-a]pyrazine-7-carboxamide], the CC50 was > 250 µM.
In the case of O=C(NCc1ccc(F)cc1F)c1cn2ccn(CCCCCCO)c(=O)c2c(O)c1=O [Compound 6c, N-(2,4-Difluorobenzyl)-9-hydroxy-2-(6-hydroxyhexyl)-1,8-dioxo-1,8-dihydro-2H-pyrido [1,2-a]pyrazine-7-carboxamide], the CC50 is reported as > 250 µM.
For O=C(NCc1ccc(F)cc1F)c1cn2ccn(CCCCCO)c(=O)c2c(O)c1=O [Compound 6d, N-(2,4-Difluorobenzyl)-9-hydroxy-2-(5-hydroxypentyl)-1,8-dioxo-1,8-dihydro-2H-pyrido [1,2-a]pyrazine-7-carboxamide], the CC50 was > 250 µM.

Reference: PMC9919513, “A Practical Approach to Bicyclic Carbamoyl Pyridones with Application to the Synthesis of HIV-1 Integrase Strand Transfer Inhibitors” (Molecules, 2023)
